Test results published in patent publication US20250297292A1, “ENZYMATIC REDUCTION OR REDUCTIVE AMINATION OF ARYL AND HETEROCYCLIC CARBOXYLIC ACIDS AND ALDEHYDES” (University of Delaware Newark, priority 2022, published 2025).

Columns and labels:
[1] = test system: cvTA; test: Endpoint bioconversion of PET-derived aldehydes to amines by cvTA; assay type: biochemical, Chromobacterium violaceum; conditions: 10 mM substrate, 1.5 μM cvTA, 40 mM iPr-NH2, 24 h at 30° C., N=3
Description: cvTA reactions for the conversion of 4FBA and TPAL to their corresponding amine (FIG. 8A) Endpoint bioconversion of 10 mM 4FBA to pAMBA (FIG. 8B) and 10 mM TPAL to pXYL (FIG. 8C) by 1.5 μM cvTA in 100 mM HEPES pH 7.5, 400 μM PLP with 40 mM iPr-NH2 as the amine donor. […] Sample size is N=3 and all data are shown as the mean±standard deviation.

[2] = test system: srCAR; test: Time course of enzymatic reduction of PET-derived carboxylates by srCAR with co-factor regeneration; assay type: biochemical, Segniliparus rotundus; conditions: 5 mM substrate, 3-enzyme NADPH and ATP regeneration system, N=3
Description: Endpoint in vitro assays showing the conversion of 5 mM TPA to TPAL after 24 h, with and without co-factor regenerating enzymes. […] Time course analysis of the enzymatic reduction of (i) 5 mM TPA, (ii) 5 mM 4FBA, (iii) 5 mM mmTPA and (iv) 5 mM MHET by CAR (FIG. 10B) All experiments included a 3-enzyme NADPH and ATP regeneration system. […] Sample size is N=3 and all data are shown as the mean±standard deviation. Error bars for certain points of the bioconversion of mmTPA to mm4FBA are smaller than the height of the symbol.

[3] = molecular target: lipase from Candida antarctica (CALB) (Moesziomyces antarcticus, UniProt P41365); test: De-esterification of PET-derived ester aldehydes by lipase CALB; assay type: biochemical; conditions: 1 mM substrate, 24 h, 30° C.
[4] = test system: CAR from Segniliparus rotundus (srCAR); test: CAR initial rate by NADPH oxidation (srCAR on PET-derived carboxylates); assay type: biochemical; conditions: average activity of srCAR on TPA, triplicate average; used to normalize the heatmap
From the text: Using a sequence similarity network, CARs were sampled across distinct protein clusters to probe for activity on TPA. Of 22 cloned CARs, 17 expressed, with 9 of those CARs being unreported in literature (FIG. 9A). Anti-His6 Western blot of cell lysate from E. coli BL21 (DE3) harboring different CARs is shown by phylogeny (FIG. 9B). CARS were expressed under optimized conditions. The Western blot is comprised of two separate blots, which are delineated by the dashed lines and contain their own protein ladders. The first lane of the Western blot is a control lane consisting of lysate from E. coli BL21 (DE3) with no CAR plasmid. A band corresponding to the putative CAR from Streptomyces noursei was not detected during Western blot analysis but was confirmed in a separate experiment. The substrate specificity of CAR was evaluated on TPA, 4FBA, MHET and mmTPA, which are carboxylates related to PET depolymerization (FIG. 9C). In addition, pAMBA was tested, as it is a potential reaction intermediate in our proposed multienzyme cascade for the formation of amines. Under mild aqueous conditions, the conversion of CAR was tracked on TPA, 4FBA, MHET, mmTPA, pAMBA and the model aromatic acid, benzoic acid (FIG. 9D). Here, the oxidation of NADPH is measured as a proxy to aldehyde formation, as depletion of NADPH is linked to the consumption of substrate. […]

lipase from Candida antarctica (CALB), sequence (P41365 26-342): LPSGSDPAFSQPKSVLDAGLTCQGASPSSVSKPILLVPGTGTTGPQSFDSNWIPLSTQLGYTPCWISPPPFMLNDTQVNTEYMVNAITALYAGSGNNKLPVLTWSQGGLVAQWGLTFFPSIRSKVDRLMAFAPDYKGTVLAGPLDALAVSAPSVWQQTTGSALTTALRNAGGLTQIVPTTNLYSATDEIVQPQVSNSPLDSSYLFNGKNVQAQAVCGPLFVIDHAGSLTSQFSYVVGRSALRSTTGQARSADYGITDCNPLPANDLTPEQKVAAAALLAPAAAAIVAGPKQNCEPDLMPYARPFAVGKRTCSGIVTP

SMILES: O=Cc1ccc(C(=O)O)cc1 [4FBA, 4-formylbenzoic acid]
- endpoint bioconversion of aldehyde to amine [1]: proceeds to completion
- over-reduction of aldehyde product to alcohol during reduction [2]: over-reduction of aldehydes to alcohols

SMILES: O=Cc1ccc(C(=O)OCCO)cc1 [MHE-4FBA, 2-hydroxyethyl 4-formylbenzoate]
- de-esterification by CALB [3]: completely de-esterified

SMILES: O=C(O)c1ccc(C(=O)O)cc1 [TPA, terephthalic acid]
- average initial rate (oxidation of NADPH as proxy to aldehyde formation) [4]: 4.80 mM NADPHox·h^−1·μMCAR^−1
- over-reduction of aldehyde product to alcohol during reduction [2]: over-reduction of aldehydes to alcohols

SMILES: O=Cc1ccc(C=O)cc1 [TPAL, terephthalaldehyde]
- endpoint bioconversion of aldehyde to amine [1]: proceeds to completion

SMILES: COC(=O)c1ccc(C=O)cc1 [mm4FBA, methyl 4-formylbenzoate]
- de-esterification by CALB [3]: completely de-esterified

SMILES: COC(=O)c1ccc(C(=O)O)cc1 [mmTPA, monomethyl terephthalate]
- over-reduction of aldehyde product to alcohol during reduction [2]: decline in concentration over time to the purported alcohol product
